Measured values as given in patent US9687479B2, “Multisubstituted aromatic compounds as serine protease inhibitors” (VERSEON CORPORATION, priority 2013, dated 2017).

Key:
Human KLKB1 = Human KLKB1 (Homo sapiens (Human), UniProt P03952); experiment: KLKB1 kallikrein activity inhibition assay (chromogenic substrate S-2302); assay type: biochemical; settings: Table B
Protocol: The KLKB1 kallikrein activity reported herein (e.g., Tables B, C, and D) was obtained as follows. Human KLKB1 protein was obtained from Enzyme Research Labs. […] KLKB1 was assayed in buffer containing 0.05 M Tris (pH 7.4), 0.01 M NaCl and 0.2% w/v PEG-8000. The final concentration of enzyme used was 3 nM KLKB1. […] All assays were performed in 96-well microtiter plates at room temperature (RT). […] Inhibitor IC50 values were determined by adding test compound as ten point, three-fold serial dilutions in buffer solution, as known in the art. The plate was read at 10 minutes after substrate addition. The IC50 was calculated by plotting the percent (%) inhibition against compound concentration and fitting the data to a constrained four parameter sigmoidal curve, as known in the art.

Human thrombin = Human thrombin (Homo sapiens (Human), UniProt P00734); experiment: Thrombin protease activity inhibition assay (chromogenic substrate S-2238); assay type: biochemical; settings: 3 nM thrombin, 125 μM S-2238, 10 min pre-incubation, RT
Method in brief: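 Ten-point, three-fold serial dilutions of compound tested against 3 nM enzyme at RT in Tris buffer (0.05 M, pH 7.4) with 0.015 M NaCl and 0.01% PEG-8000.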

Human KLKB1, sequence (P03952 391-638 limits assumed): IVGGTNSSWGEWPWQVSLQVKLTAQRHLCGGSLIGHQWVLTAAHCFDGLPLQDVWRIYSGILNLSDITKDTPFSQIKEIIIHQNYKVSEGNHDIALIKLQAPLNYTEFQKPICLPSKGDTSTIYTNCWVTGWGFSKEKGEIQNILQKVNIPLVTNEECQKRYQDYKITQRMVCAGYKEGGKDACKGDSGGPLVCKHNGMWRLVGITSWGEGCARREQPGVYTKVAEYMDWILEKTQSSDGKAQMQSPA
Human KLKB1, sequence (P03952 20-390 partner limits assumed): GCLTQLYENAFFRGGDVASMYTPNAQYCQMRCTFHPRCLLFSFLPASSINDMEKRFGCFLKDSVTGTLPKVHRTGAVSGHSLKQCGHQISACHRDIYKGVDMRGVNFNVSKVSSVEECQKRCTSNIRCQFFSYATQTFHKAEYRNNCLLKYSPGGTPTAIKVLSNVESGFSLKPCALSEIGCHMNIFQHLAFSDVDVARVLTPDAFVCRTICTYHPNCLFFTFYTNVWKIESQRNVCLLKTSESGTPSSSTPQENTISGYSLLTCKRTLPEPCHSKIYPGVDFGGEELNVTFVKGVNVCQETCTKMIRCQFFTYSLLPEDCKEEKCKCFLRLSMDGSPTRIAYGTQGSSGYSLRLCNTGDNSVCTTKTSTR

| SMILES | IC50 (Human KLKB1) | IC50 (Human thrombin) |
| --- | --- | --- |
| COCC(C)(C)C(=O)n1nc(-c2cccn(Cc3ccsc3)c2=O)cc1NCc1ccc(Cl)s1 [Cmpd 106, 3-(5-[(5-chlorothiophen-2-yl)methyl]amino-1-(3-methoxy-2,2-dimethylpropanoyl)-1H-pyrazol-3-yl)-1-(thiophen-3-ylmethyl)-1,2-dihydropyridin-2-one] | > 100000 nM | < 100 nM |
| O=C(c1ccsc1)n1nc(-c2cccn(Cc3ccccn3)c2=O)cc1NCc1ccc(Cl)s1 [Cmpd 198, 3-(5-[(5-chlorothiophen-2-yl)methyl]amino-1-[(thiophen-3-yl)carbonyl]-1H-pyrazol-3-yl)-1-(pyridin-2-ylmethyl)-1,2-dihydropyridin-2-one] | 100 to 1000 nM | < 100 nM |
| COCC(C)(C)C(=O)n1nc(-c2cccn(Cc3cccnc3)c2=O)cc1NCc1ccc(Cl)s1 [Cmpd 102, 3-(5-[(5-chlorothiophen-2-yl)methyl]amino-1-(3-methoxy-2,2-dimethylpropanoyl)-1H-pyrazol-3-yl)-1-(pyridin-3-ylmethyl)-1,2-dihydropyridin-2-one] | 10000 to 100000 nM | < 100 nM |
| COCCn1cccc(-c2cc(NCc3ccc(Cl)s3)n(C(=O)c3cccs3)n2)c1=O [Cmpd 182, 3-(5-[(5-chlorothiophen-2-yl)methyl]amino-1-[(thiophen-2-yl)carbonyl]-1H-pyrazol-3-yl)-1-(2-methoxyethyl)-1,2-dihydropyridin-2-one] | 1000 to 10000 nM | < 100 nM |
| O=c1c(-c2cc(NCc3ccc(Cl)s3)n[nH]2)cccn1CCc1ccccn1 [Cmpd 235, 3-(5-[(5-chlorothiophen-2-yl)methyl]amino-1H-pyrazol-3-yl)-1-[2-(pyridin-2-yl)ethyl]-1,2-dihydropyridin-2-one] | 10000 to 100000 nM | 10000 to 100000 nM |
| O=C(c1ccsc1)n1nc(-c2cccn(Cc3ccoc3)c2=O)cc1NCc1ccc(Cl)s1 [Cmpd 196, 3-(5-[(5-chlorothiophen-2-yl)methyl]amino-1-[(thiophen-3-yl)carbonyl]-1H-pyrazol-3-yl)-1-(furan-3-ylmethyl)-1,2-dihydropyridin-2-one] | 100 to 1000 nM | < 100 nM |
| O=C(c1ccsc1)n1nc(-c2cccn(Cc3ncccn3)c2=O)cc1NCc1ccc(Cl)s1 [Cmpd 201, 3-(5-[(5-chlorothiophen-2-yl)methyl]amino-1-[(thiophen-3-yl)carbonyl]-1H-pyrazol-3-yl)-1-(pyrimidin-2-ylmethyl)-1,2-dihydropyridin-2-one] | 100 to 1000 nM | < 100 nM |
| O=C(c1cccs1)n1nc(-c2cccn(Cc3ccccc3)c2=O)cc1NCc1ccc(Cl)s1 [Cmpd 51, 1-benzyl-3-(5-[(5-chlorothiophen-2-yl)methyl]amino-1-[(thiophen-2-yl)carbonyl]-1H-pyrazol-3-yl)-1,2-dihydropyridin-2-one] | > 100000 nM | < 100 nM |
| O=c1c(-c2cc(NCc3ccc(Cl)s3)[nH]n2)cccn1Cc1ccncc1 [Cmpd 229, 3-(5-[(5-chlorothiophen-2-yl)methyl]amino-1H-pyrazol-3-yl)-1-(pyridin-4-ylmethyl)-1,2-dihydropyridin-2-one] | > 100000 nM | 1000 to 10000 nM |
| COCCn1cccc(-c2cc(NCc3ccc(Cl)s3)n(C(=O)C(C)(C)CO)n2)c1=O [Cmpd 92, 3-(5-[(5-chlorothiophen-2-yl)methyl]amino-1-(3-hydroxy-2,2-dimethylpropanoyl)-1H-pyrazol-3-yl)-1-(2-methoxyethyl)-1,2-dihydropyridin-2-one] | 10000 to 100000 nM | < 100 nM |
| COCC(C)(C)C(=O)n1nc(-c2cccn(Cc3ncccn3)c2=O)cc1NCc1ccc(Cl)s1 [Cmpd 104, 3-(5-[(5-chlorothiophen-2-yl)methyl]amino-1-(3-methoxy-2,2-dimethylpropanoyl)-1H-pyrazol-3-yl)-1-(pyrimidin-2-ylmethyl)-1,2-dihydropyridin-2-one] | 1000 to 10000 nM | < 100 nM |
| CC(C)(CO)C(=O)n1nc(-c2cccn(Cc3ccco3)c2=O)cc1NCc1ccc(Cl)s1 [Cmpd 93, 3-(5-[(5-chlorothiophen-2-yl)methyl]amino-1-(3-hydroxy-2,2-dimethylpropanoyl)-1H-pyrazol-3-yl)-1-(furan-2-ylmethyl)-1,2-dihydropyridin-2-one] | 10000 to 100000 nM | < 100 nM |
| O=C(c1ccc(N2CCOCC2)cc1)n1nc(-c2cccn(Cc3ccoc3)c2=O)cc1NCc1ccc(Cl)s1 [Cmpd 210, 3-(5-[(5-chlorothiophen-2-yl)methyl]amino-1-[4-(morpholin-4-yl)phenyl]carbonyl-1H-pyrazol-3-yl)-1-(furan-3-ylmethyl)-1,2-dihydropyridin-2-one] | 10000 to 100000 nM | < 100 nM |
| O=C(c1ccoc1)n1nc(-c2cccn(Cc3ccsc3)c2=O)cc1NCc1ccc(Cl)s1 [Cmpd 179, 3-(5-[(5-chlorothiophen-2-yl)methyl]amino-1-[(furan-3-yl)carbonyl]-1H-pyrazol-3-yl)-1-(thiophen-3-ylmethyl)-1,2-dihydropyridin-2-one] | 10000 to 100000 nM | < 100 nM |
| O=C(c1ccoc1)n1nc(-c2cccn(Cc3cccs3)c2=O)cc1NCc1ccc(Cl)s1 [Cmpd 5, 3-(5-[(5-chlorothiophen-2-yl)methyl]amino-1-[(furan-3-yl)carbonyl]-1H-pyrazol-3-yl)-1-(thiophen-2-ylmethyl)-1,2-dihydropyridin-2-one] | 1000 to 10000 nM | < 100 nM |
| O=C(c1ccccc1Cl)n1nc(-c2cccn(Cc3ccco3)c2=O)cc1NCc1ccc(Cl)s1 [Cmpd 243, 3-1-[(2-chlorophenyl)carbonyl]-5-[(5-chlorothiophen-2-yl)methyl]amino-1H-pyrazol-3-yl-1-(furan-2-ylmethyl)-1,2-dihydropyridin-2-one] | 100 to 1000 nM | < 100 nM |
| O=C(c1ccccc1Cl)n1nc(-c2cccn(Cc3ccoc3)c2=O)cc1NCc1ccc(Cl)s1 [Cmpd 244, 3-1-[(2-chlorophenyl)carbonyl]-5-[(5-chlorothiophen-2-yl)methyl]amino-1H-pyrazol-3-yl-1-(furan-3-ylmethyl)-1,2-dihydropyridin-2-one] | 100 to 1000 nM | < 100 nM |
| O=C(c1ccsc1)n1nc(-c2cccn(Cc3ccsc3)c2=O)cc1NCc1ccc(Cl)s1 [Cmpd 203, 3-(5-[(5-chlorothiophen-2-yl)methyl]amino-1-[(thiophen-3-yl)carbonyl]-1H-pyrazol-3-yl)-1-(thiophen-3-ylmethyl)-1,2-dihydropyridin-2-one] | 100 to 1000 nM | < 100 nM |
| O=C(c1ccc(N2CCOCC2)cc1)n1nc(-c2cccn(Cc3ccccc3)c2=O)cc1NCc1ccc(Cl)s1 [Cmpd 53, 1-benzyl-3-(5-[(5-chlorothiophen-2-yl)methyl]amino-1-[4-(morpholin-4-yl)phenyl]carbonyl-1H-pyrazol-3-yl)-1,2-dihydropyridin-2-one] | > 100000 nM | < 100 nM |
| COCCn1cccc(-c2cc(NCc3ccc(Cl)s3)n(C(=O)c3cccc4c3OCCO4)n2)c1=O [Cmpd 109, 3-(5-[(5-chlorothiophen-2-yl)methyl]amino-1-[(2,3-dihydro-1,4-benzodioxin-5-yl)carbonyl]-1H-pyrazol-3-yl)-1-(2-methoxyethyl)-1,2-dihydropyridin-2-one] | 1000 to 10000 nM | < 100 nM |
| CC1(C(=O)n2nc(-c3cccn(Cc4cccs4)c3=O)cc2NCc2ccc(Cl)s2)CCOCC1 [Cmpd 157, 3-(5-[(5-chlorothiophen-2-yl)methyl]amino-1-[(4-methyloxan-4-yl)carbonyl]-1H-pyrazol-3-yl)-1-(thiophen-2-ylmethyl)-1,2-dihydropyridin-2-one] | > 100000 nM | < 100 nM |
| O=C(c1ccc(N2CCOCC2)cc1)n1nc(-c2cccn(CCN3CCOCC3)c2=O)cc1NCc1ccc(Cl)s1 [Cmpd 218, 3-(5-[(5-chlorothiophen-2-yl)methyl]amino-1-[4-(morpholin-4-yl)phenyl]carbonyl-1H-pyrazol-3-yl)-1-[2-(morpholin-4-yl)ethyl]-1,2-dihydropyridin-2-one] | 100 to 1000 nM | < 100 nM |
| Cn1cccc(-c2cc(NCc3ccc(Cl)s3)n(C(=O)c3ccccc3)n2)c1=O [Cmpd 73, 3-(1-benzoyl-5-[(5-chlorothiophen-2-yl)methyl]amino-1H-pyrazol-3-yl)-1-methyl-1,2-dihydropyridin-2-one] | > 100000 nM | < 100 nM |
| COCCn1cccc(-c2cc(NCc3ccc(Cl)s3)n(C(=O)c3ccsc3)n2)c1=O [Cmpd 194, 3-(5-[(5-chlorothiophen-2-yl)methyl]amino-1-[(thiophen-3-yl)carbonyl]-1H-pyrazol-3-yl)-1-(2-methoxyethyl)-1,2-dihydropyridin-2-one] | 100 to 1000 nM | < 100 nM |
| COc1ccc(C(=O)n2nc(-c3cccn(Cc4ccccn4)c3=O)cc2NCc2ccc(Cl)s2)c(OC)c1 [Cmpd 125, 3-(5-[(5-chlorothiophen-2-yl)methyl]amino-1-[(2,4-dimethoxyphenyl)carbonyl]-1H-pyrazol-3-yl)-1-(pyridin-2-ylmethyl)-1,2-dihydropyridin-2-one] | 1000 to 10000 nM | < 100 nM |
| O=c1c(-c2cc(NCc3ccc(Cl)s3)[nH]n2)cccn1Cc1ccccn1 [Cmpd 227, 3-(5-[(5-chlorothiophen-2-yl)methyl]amino-1H-pyrazol-3-yl)-1-(pyridin-2-ylmethyl)-1,2-dihydropyridin-2-one] | > 100000 nM | 1000 to 10000 nM |
